Legend:
Type in all cases: in vivo
ABUTH [1] = test: Pre-emergence herbicidal action; conditions: Table 3, pre-emergence (PE), 320 g/ha, scored after 3 weeks
Description: (§1) Seeds of monocotyledonous and dicotyledonous weed plants and crop plants are laid out in sandy loam soil in wood-fiber pots and covered with soil. The compounds of the invention, formulated in the form of wettable powders (WP) or as emulsion concentrates (EC), are then applied to the surface of the covering soil in the form of an aqueous suspension or emulsion at a water application rate equating to 600 to 800 I/ha, with addition of 0.2% wetting agent. After the treatment, the pots are placed in a greenhouse and kept under good growth conditions for the trial plants. The damage to the test plants is scored visually after a test period of 3 weeks by comparison with untreated controls (herbicidal activity in percent (%): 100% activity=the plants have died, 0% activity=like control plants).
(§2) At the same time, inventive compounds leave Gramineae crops such as barley, wheat, rye, millet/sorghum, corn or rice virtually undamaged when applied pre-emergence, even at high active ingredient dosages. In addition, some substances are also harmless to dicotyledonous crops such as soya, cotton, oilseed rape, sugar beet or potatoes. […] The tables below illustrate, in an exemplary manner, the pre-emergence herbicidal action of the compounds according to the invention, the herbicidal activity being stated in percent.

ALOMY = test: Pre-emergence herbicidal action; conditions: Table 3, pre-emergence (PE), 320 g/ha, scored after 3 weeks
Description: as §1, §2

AMARE [2] = test: Pre-emergence herbicidal action; conditions: 320 g/ha, scored after 3 weeks
Description: as §1, §2

ECHCG [3] = test: Pre-emergence herbicidal action; conditions: 320 g/ha, scored after 3 weeks
Description: as §1, §2

SETVI [4] = test: Pre-emergence herbicidal action; conditions: Table 3, pre-emergence (PE), 320 g/ha, scored after 3 weeks
Description: as §1, §2

ABUTH [5] = test: Post-emergence herbicidal action; conditions: 320 g/ha, assessed after about 3 weeks
Experimental: (§3) Seeds of monocotyledonous and dicotyledonous weed and crop plants are laid out in sandy loam soil in wood-fiber pots, covered with soil and cultivated in a greenhouse under good growth conditions. 2 to 3 weeks after sowing, the test plants are treated at the one-leaf stage. The compounds of the invention, formulated in the form of wettable powders (WP) or as emulsion concentrates (EC), are then sprayed onto the green parts of the plants in the form of an aqueous suspension or emulsion at a water application rate equating to 600 to 800 l/ha, with addition of 0.2% wetting agent. After the test plants have been left to stand in the greenhouse under optimal growth conditions for about 3 weeks, the action of the preparations is assessed visually in comparison to untreated controls (herbicidal action in percent (%): 100% activity=the plants have died, 0% activity=like control plants). […] At the same time, inventive compounds leave Gramineae crops such as barley, wheat, rye, millet/sorghum, corn or rice virtually undamaged when applied post-emergence, even at high active ingredient dosages. In addition, some substances are also harmless to dicotyledonous crops such as soya, cotton, oilseed rape, sugar beet or potatoes. Some of the compounds according to the invention have high selectivity and are therefore suitable for controlling unwanted vegetation in agricultural crops by the post-emergence method. The tables below illustrate, in an exemplary manner, the post-emergence herbicidal action of the compounds according to the invention, the herbicidal activity being stated in percent.

AMARE [6] = test: Post-emergence herbicidal action; conditions: 320 g/ha, assessed after about 3 weeks
Experimental: as §3

SETVI [7] = test: Post-emergence herbicidal action; conditions: 320 g/ha, assessed after about 3 weeks
Experimental: as §3

STEME = test: Post-emergence herbicidal action; conditions: 320 g/ha, assessed after about 3 weeks
Experimental: as §3

ECHCG [8] = test: Post-emergence herbicidal action; conditions: 320 g/ha, assessed after about 3 weeks
Experimental: as §3

PHBPU = test: Post-emergence herbicidal action; conditions: Table 5, post-emergence (PO), 320 g/ha, assessed after about 3 weeks
Experimental: as §3

POLCO = test: Post-emergence herbicidal action; conditions: Table 5, post-emergence (PO), 320 g/ha, assessed after about 3 weeks
Experimental: as §3

VIOTR = test: Post-emergence herbicidal action; conditions: Table 5, post-emergence (PO), 320 g/ha, assessed after about 3 weeks
Experimental: as §3

SMILES | Herbicidal action against ABUTH (ABUTH [1]) | Herbicidal action against ALOMY (ALOMY) | Herbicidal action against AMARE (AMARE [2]; Table 3, pre-emergence (PE)) | Herbicidal action against ECHCG (ECHCG [3]; Table 3, pre-emergence (PE)) | Herbicidal action against SETVI (SETVI [4]) | Herbicidal action against ABUTH (ABUTH [5]; Table 6, post-emergence (PO)) | Herbicidal action against AMARE (AMARE [6]; Table 6, post-emergence (PO)) | Herbicidal action against SETVI (SETVI [7]; Table 6, post-emergence (PO)) | Herbicidal action against STEME (STEME; Table 6, post-emergence (PO)) | Herbicidal action against AMARE (AMARE [2]; Table 4, pre-emergence (PE)) | Herbicidal action against ECHCG (ECHCG [3]; Table 4, pre-emergence (PE)) | Herbicidal action against ABUTH (ABUTH [5]; Table 7, post-emergence (PO)) | Herbicidal action against ABUTH (ABUTH [5]; Table 8, post-emergence (PO)) | Herbicidal action against AMARE (AMARE [6]; Table 7, post-emergence (PO)) | Herbicidal action against AMARE (AMARE [6]; Table 8, post-emergence (PO)) | Herbicidal action against ECHCG (ECHCG [8]; Table 7, post-emergence (PO)) | Herbicidal action against ECHCG (ECHCG [8]; Table 8, post-emergence (PO)) | Herbicidal action against SETVI (SETVI [7]; Table 7, post-emergence (PO)) | Herbicidal action against SETVI (SETVI [7]; Table 8, post-emergence (PO)) | other results
Nc1cc(-c2ccc3occc3c2)nc(C(=O)OCc2cccc(C(F)(F)F)c2)c1Cl [Example I-11] | 20% | 80% | 100% | 80% | 100% | 100% | 100% | 90% | 100% | – | – | – | – | – | – | – | – | – | – | –
Nc1c(F)c(-c2ccc3ccoc3c2)nc(C(=O)OCc2ccc(Cl)cc2)c1Cl [Example I-15] | 90% | 0% | 100% | 30% | 0% | 100% | 100% | 80% | 80% | – | – | – | – | – | – | – | – | – | – | –
COc1c(F)ccc(COC(=O)c2nc(-c3ccc4occc4c3)cc(N)c2Cl)c1F [Example I-17] | – | – | – | – | – | – | – | – | – | 100% | 90% | 90% | 90% | 100% | 100% | 90% | 90% | 100% | 100% | –
Nc1cc(-c2ccc3ccsc3c2)nc(C(=O)OCc2c(F)c(F)c(F)c(F)c2F)c1Cl [Example I-25] | 0% | 60% | 100% | 70% | 80% | 90% | 100% | 100% | 100% | – | – | – | – | – | – | – | – | – | – | –
Nc1cc(-c2ccc3ccoc3c2)nc(C(=O)OCc2ccc(Cl)cc2)c1Cl [Example I-30] | 20% | 40% | 100% | 100% | 90% | 90% | 100% | 90% | 100% | – | – | – | – | – | – | – | – | – | – | –
Nc1cc(-c2ccc3occc3c2)nc(C(=O)OCc2ccc(Cl)cc2)c1Cl [Example I-31] | 30% | 20% | 90% | 30% | 50% | 100% | 100% | 90% | 100% | – | – | – | – | – | – | – | – | – | – | –
Nc1cc(-c2ccc3ccsc3c2)nc(C(=O)OCc2c(F)cc(F)cc2F)c1Cl [Example I-32] | 30% | 70% | 100% | 80% | 80% | – | – | – | – | – | – | – | – | – | – | – | – | – | – | Herbicidal action against ABUTH (ABUTH [5]; Table 9, post-emergence (PO)): 90%; Herbicidal action against AMARE (AMARE [6]; Table 9, post-emergence (PO)): 100%
Nc1c(F)c(-c2ccc3occc3c2)nc(C(=O)OCc2ccc(F)cc2)c1Cl [Example I-34] | – | – | – | – | – | – | – | – | – | 100% | 50% | – | – | – | – | – | – | – | – | Herbicidal action against ABUTH (ABUTH [5]; Table 5, post-emergence (PO)): 90%; Herbicidal action against AMARE (AMARE [6]; Table 5, post-emergence (PO)): 100%; Herbicidal action against ECHCG (ECHCG [8]; Table 5, post-emergence (PO)): 80%; Herbicidal action against PHBPU (PHBPU): 40%; Herbicidal action against POLCO (POLCO): 80%; Herbicidal action against SETVI (SETVI [7]; Table 5, post-emergence (PO)): 100%; Herbicidal action against STEME (STEME; Table 5, post-emergence (PO)): 90%; Herbicidal action against VIOTR (VIOTR): 0%
Nc1c(F)c(-c2ccc3ccsc3c2)nc(C(=O)OCc2ccc(F)cc2F)c1Cl [Example I-42] | 0% | 30% | 100% | 40% | 20% | 80% | 90% | 20% | 80% | – | – | – | – | – | – | – | – | – | – | –
Nc1cc(-c2ccc3ccoc3c2)nc(C(=O)OCc2ccc(F)cc2F)c1Cl [Example I-43] | – | – | – | – | – | – | – | – | – | 100% | 0% | 90% | 90% | 100% | 100% | 80% | 80% | 90% | 90% | –
Nc1c(F)c(-c2ccc3occc3c2)nc(C(=O)OCc2ccc(Cl)cc2)c1Cl [Example I-47] | 20% | 60% | 100% | 70% | 50% | 90% | 90% | 70% | 80% | – | – | – | – | – | – | – | – | – | – | –
Nc1cc(-c2ccc3ccsc3c2)nc(C(=O)OCc2cccc(Cl)c2)c1Cl [Example I-50] | – | – | – | – | – | – | – | – | – | 80% | 70% | 90% | 90% | 100% | 100% | 90% | 90% | 40% | 40% | –
Nc1c(F)c(-c2ccc3occc3c2)nc(C(=O)OCc2c(F)cc(F)cc2F)c1Cl [Example I-52] | 20% | 80% | 80% | 30% | 40% | 80% | 90% | 20% | 80% | – | – | – | – | – | – | – | – | – | – | –
Nc1cc(-c2ccc3ccoc3c2)nc(C(=O)OCc2c(F)c(F)c(F)c(F)c2F)c1Cl [Example I-54] | – | – | – | – | – | – | – | – | – | 80% | 0% | 80% | 80% | 100% | 100% | 80% | 80% | 80% | 80% | –
Nc1c(F)c(-c2ccc3sccc3c2)nc(C(=O)OCc2ccc(Cl)cc2)c1Cl [Example I-65] | – | – | – | – | – | – | – | – | – | – | – | – | – | – | – | – | – | – | – | Herbicidal action against ABUTH (ABUTH [5]; Table 5, post-emergence (PO)): 80%; Herbicidal action against AMARE (AMARE [6]; Table 5, post-emergence (PO)): 100%; Herbicidal action against ECHCG (ECHCG [8]; Table 5, post-emergence (PO)): 80%; Herbicidal action against PHBPU (PHBPU): 0%; Herbicidal action against POLCO (POLCO): 100%; Herbicidal action against SETVI (SETVI [7]; Table 5, post-emergence (PO)): 90%; Herbicidal action against STEME (STEME; Table 5, post-emergence (PO)): 80%; Herbicidal action against VIOTR (VIOTR): 10%
Nc1cc(-c2ccc3ncsc3c2)nc(C(=O)OCc2ccc(Cl)cc2)c1Cl [Example I-69] | – | – | – | – | – | – | – | – | – | – | – | 90% | 90% | 100% | 100% | 90% | 90% | 80% | 80% | –
